{"source": "patent US11084799B2", "about": "“Polymorph of benzamide compound and preparation method and applications thereof” (SHENYANG SINOCHEM AGROCHEMICALS R&D CO., LTD., priority 2016, dated 2021)", "key": {"[1]": {"assay": "Formulation sample (10% water suspending agent) kept at normal temperatures", "format": "physicochemical", "description": "(§1) The formulation includes the following composition: 10 parts of polymorph A of Compound 1 or polymorph B of Compound 1 obtained in above examples, 3 parts of sodium naphthalenesulfonate formaldehyde condensate, 3 parts of sodium salt of alkyl naphthalene sulfonic acid polycondensate, 0.1 part of white carbon black, 0.1 part of xanthan gum, 2 parts of pesticide emulsifier 0201B, 5 parts of glycol, 0.2 part of WJX-1 and water which is used to complement up to 100 parts by weight were successively added to a mixing tank for mixing. After conducting coarse grinding and homogenization through high shear, the mixture was grinded in a sand mill and detected the particle size of sanding materials through a sedimentograph. After the particle size meeting the standard requirements, the mixture was filtered to obtain 10% water suspending agent of polymorph A of Compound 1 or polymorph B of Compound 1."}, "[2]": {"assay": "Pourability of 10% water suspending agent", "format": "physicochemical", "description": "as §1"}, "[3]": {"assay": "Particle size distribution of 10% water suspending agent", "format": "physicochemical", "description": "as §1"}, "[4]": {"assay": "Heat storage (54 ± 2° C.) of 10% water suspending agent", "format": "physicochemical", "description": "as §1"}, "[5]": {"format": "physicochemical", "description": "In the present invention, the slurry of the polymorph B of Compound 1 is heated in the presence of the solvent to convert into the polymorph A of Compound 1. The solvent is selected from the alcohol solvent and/or water. The alcohol solvent is selected from methanol, ethanol, n-propanol, isopropanol, n-butanol and n-pentanol. The adopted solvent can well convert the polymorph B into the polymorph A. In addition, the water as the solvent is well used to convert the polymorph B into the polymorph A. Furthermore, in the conversion process, at a temperature not more than 100° C., almost 100% conversion is completed at high yield within proper time. In the selection of the solvent, the water is selected to effectively reduce cost compared with the organic solvent. […] As an alternative, if the polymorph A with high concentration is in the water, then the polymorph A can be separated through evaporation of the water."}, "[6]": {"assay": "Dispersibility of 10% water suspending agent", "format": "physicochemical", "conditions": "after normal temperature for 2 years and heat storage (54 ± 2° C./14 d)", "description": "as §1"}, "[7]": {"assay": "Insecticidal activity (pharmacodynamic stability), polymorph A versus polymorph B", "conditions": "compared with polymorph B", "description": "(§2) The polymorph A also presents better performance than the compound 1 prepared by the method (example 5) in the patent WO02010003350A1 in the aspect of the physical properties of the formulation."}, "[8]": {"assay": "Crystal form stability during long-term storage", "format": "physicochemical", "description": "(§3) The advantages of the polymorph A in aspects such as chemical stability, filterability, solubility, hygroscopicity, melting point, solid density and flowability can have a significant impact on the developments of the production method and a formulation and on the quality and efficacy of a plant treating agent. […] The stability is favorable for determination of consistency of Compound 1. These features enable the polymorph A of Compound 1 to be well suitable for preparing a long effective and stable solid formulation so that the polymorph A has stable content of active component."}, "[9]": {"assay": "Hygroscopicity on exposure to changing air humidity", "format": "physicochemical", "conditions": "exposed to changing air humidity", "description": "as §3"}, "[10]": {"assay": "Suspensibility in processing of the formulation", "format": "physicochemical", "conditions": "compared with polymorph B", "description": "as §2"}}, "note": "“Also recorded” adds a separate entry of the source."}
{"compound": "CNC(=O)c1cc(Cl)cc(Cl)c1NC(=O)c1cc(Br)nn1-c1ncc(Cl)cc1Cl", "note": "[Compound 1 Prepared by the Method in WO2010003350A1] [3-bromo-N-[2,4-dichloro-6-[(methylamino)carbonyl]phenyl]-1-(3,5-dichloro-2-pyridinyl)-1H-pyrazole-5-carboxamide, reference compound]", "values": [{"measurement": "Kept at normal temperatures: flowability of the formulation sample", "setting": "[1]; suspending agent, after kept for 1 week", "result": "suspending agent has poor"}, {"measurement": "Pourability: flow / flowability of the formulation sample", "setting": "[2]; 10% water suspending agent", "result": "suspending agent has poor"}, {"measurement": "Pourability: residues after washed", "setting": "[2]; 10% water suspending agent", "result": "unqualified."}, {"measurement": "Particle size distribution", "setting": "[3]; suspending agent, no storage time stated", "result": "distribution is wide."}, {"measurement": "Heat storage (54 ± 2° C.): state of the formulation sample", "setting": "[4]; suspending agent, observed after heat storage for 3 days", "result": "solidified and could not shake."}]}
{"compound": "CNC(=O)c1cc(Cl)cc(Cl)c1NC(=O)c1cc(Br)nn1-c1ncc(Cl)cc1Cl", "note": "[Polymorph A, 3-bromo-N-[2,4-dichloro-6-[(methylamino)carbonyl]phenyl]-1-(3,5-dichloro-2-pyridinyl)-1H-pyrazole-5-carboxamide]", "values": [{"measurement": "Kept at normal temperatures: flowability of the formulation sample", "setting": "[1]; 10% water suspending agent, after kept for two years", "result": "suspending agent has good"}, {"measurement": "Kept at normal temperatures: viscosity of the formulation sample", "setting": "[1]; 10% water suspending agent, after kept for two years, printed as almost unchanged", "result": "unchanged viscosity."}, {"measurement": "Solubility in the water", "setting": "[5]", "result": "very low solubility"}, {"measurement": "Flowability (Dispersibility line)", "setting": "[6]", "result": "good dispersibility and good; also recorded: good flowability"}, {"measurement": "Insecticidal activity", "setting": "[7]", "result": "better insecticidal activity"}, {"measurement": "Pourability (overall verdict)", "setting": "[2]; 10% water suspending agent", "result": "qualified."}, {"measurement": "Pourability: flow / flowability of the formulation sample", "setting": "[2]; 10% water suspending agent", "result": "good flowability; after"}, {"measurement": "Pourability: residues after washed", "setting": "[2]; 10% water suspending agent", "result": "≤ 0.5%; the pourability is"}, {"measurement": "Pourability", "setting": "[2]; in the processing of the formulation, compared with polymorph B", "result": "better pourability"}, {"measurement": "Particle size distribution", "setting": "[3]; 10% water suspending agent, after normal temperature for 2 years and heat storage (54 ± 2° C./14 d), printed as almost unchanged", "result": "unchanged."}, {"measurement": "Conversion into other crystal forms", "setting": "[8]", "result": "does not convert into other crystal forms; also recorded: may not be converted into other crystal forms"}, {"measurement": "Stability", "setting": "[8]", "result": "excellent stability"}, {"measurement": "Hygroscopicity", "setting": "[9]", "result": "does not present obvious hygroscopicity"}, {"measurement": "Suspensibility", "setting": "[10]", "result": "better suspensibility"}, {"measurement": "Heat storage (54 ± 2° C.): flowability of the formulation sample", "setting": "[4]; 10% water suspending agent, after kept for 14 days at 54 ± 2° C.", "result": "agent has good flowability"}]}
{"compound": "CNC(=O)c1cc(Cl)cc(Cl)c1NC(=O)c1cc(Br)nn1-c1ncc(Cl)cc1Cl", "note": "[Polymorph B, 3-bromo-N-[2,4-dichloro-6-[(methylamino)carbonyl]phenyl]-1-(3,5-dichloro-2-pyridinyl)-1H-pyrazole-5-carboxamide]", "values": [{"measurement": "Kept at normal temperatures: state of the formulation sample of the suspending agent", "setting": "[1]; 10% water suspending agent, observed after kept for 2 h", "result": "suspending agent is solidified"}, {"measurement": "Pourability: flow / flowability of the formulation sample", "setting": "[2]; 10% water suspending agent", "result": "suspending agent does not"}, {"measurement": "Pourability: residues after washed", "setting": "[2]; 10% water suspending agent", "result": "unqualified."}, {"measurement": "Particle size distribution", "setting": "[3]; 10% water suspending agent, after kept at normal temperature for 1 week", "result": "wide."}, {"measurement": "Hygroscopicity", "setting": "[9]", "result": "obvious hygroscopicity"}, {"measurement": "Heat storage (54 ± 2° C.): state of the formulation sample", "setting": "[4]; 10% water suspending agent, observed after heat storage for 1 h", "result": "solidified and could not shake."}]}
